Patent EP0748792A1 (priority 1994, dated 1995)

Assays:
[1] = test system: total acetylating capability of the organism; test: Acetylating capability of white rats (sodium sulfacyl acetylation, arylamine content in urine); type: in vivo; conditions: agent 20 mg/kg i.p. 4 days; for Acetylating properties of the organism: Na sulfacyl acetylating in the organism of rats; for Sulfacyl isolation M ± m In acetylated form / Sulfacyl isolation M ± m In free form / Sulfacyl isolation M ± m Total: Na sulfacyl excretion in urine; for % of excretion from the dose In acetylated form / % of excretion from the dose In free form / Concentration in urine In acetylated form / Concentration in urine In free form: Na sulfacyl; for Excretion % from the dose: total Na sulfacyl excretion in urine
Protocol: It is known that intact animals, receiving sufficient doses of pantothenic acid, have accelerated reactions of arylamine biotransformation. Therefore, there is the possibility to regulate the acetylating processes in the bodies of people and animals. In the examples given below the total acetylating capability of the organism was assessed using the method of quantitative determination of the arylamine content in the urine examined.
As a subject for acetylating, aromatic amines were chosen, as their usage makes it possible to assess both the activity of N-acetylamine transferase and (indirectly) the content of acetyl CoA.
As a subject for examination sodium sulfacyl was chosen. […] 14 animals were included in each group. The examined agent was injected intraperitoneally at a dose of 20 mg/kg. On the 4th day, 4 hours after the last injection of the examined agent, the sodium sulfacyl solution in a dose of 20 mg/kg was injected intraperitoneally. All the rats were separated into exchangeable cages for urine gathering. The collected data were compared with the control groups of animals (group I - only sodium sulfacyl in a dose of 20 mg/kg, and group II - calcium pantothenate).

[2] = test system: non-linear white rats; test: Subchronic toxicity in rats (2 months); type: in vivo
Protocol: 70 non-linear white rats of both sexes with average stated mass of 72 ± 5 g, divided into 7 groups, were used in the experiment. The first three groups of animals received ketopantothenate in 0.2 ml of distilled water in doses: 13.2 mg/kg (therapeutic dose of calcium D-pantothenate), 132 and 264 mg/kg (doses 10 and 20 times larger than the therapeutic dose) internally every day during the experiment. The next three groups of animals received the same doses of calcium D-pantothenate under the same conditions for comparison. The 7th group was the control one and included intact animals. The weighing of the animals was carried out once a week. Permanent observation on development and state of rats was carried out. […] The growth of the mass of the rats receiving ketopantothenate in different doses was 3.7 - 6.0 % higher than the growth of the mass of rats from the control group (correspondingly to doses). The growth of the mass of the rats receiving calcium D-pantothenate in comparison with the control group was approximately the same.
When the experiment was over the animals were slaughtering and the internal organs were examined visually.

[3] = test system: white non-linear mice; conditions: administered perorally; species not given; cited from earlier work
[4] = test system: white non-linear mice; test: Acute toxicity in mice; type: in vivo
Protocol: The animals were distributed into 7 groups, 6 animals in each group.
The mice were under observation for 14 days. Starting from the dose of 6g/kg in the first 2 hours after the agent administration the intoxication symptoms were observed: inertia, quickened breathing. Then these symptoms passed without consequences. The mice in all groups were practically healthy, no deviations in the state and behavior of the animals were observed.

For `CC(C)(CO)[C@@H](O)C(=O)NCCC(=O)O` [Ca D-pantothenate, calcium D-pantothenate, reference compound], which “Acetylating properties of the organism” value [1] is on record?
Its value is 24.0.

What about the “Sulfacyl isolation M ± m In acetylated form” value ([1]; sulfacyl 20 mg/kg i.p.) of the same compound?
Its value is 0.67 ± 0.04.

And the “Sulfacyl isolation M ± m In free form” value ([1]; sulfacyl 20 mg/kg i.p.)?
Its value is 2.12 ± 0.09.

What about the “Sulfacyl isolation M ± m Total” value ([1]; sulfacyl 20 mg/kg i.p.) of the same compound?
The value was 2.79 ± 0.19.

What about the “% of excretion from the dose In acetylated form” value ([1]; rats) of the same compound?
The value was 22.3 ± 1.8%.

And the “% of excretion from the dose In free form” value ([1]; rats)?
Its value is 70.7 ± 6.0%.

And the “Concentration in urine In acetylated form” value ([1]; rats)?
Its value is 0.172 mg/mL.

What about the “Concentration in urine In free form” value ([1]; rats) of the same compound?
Its value is 0.54 mg/mL.

And the “Excretion % from the dose” value [1]?
Its value is 93.0%.

What about the “Mass Final” value ([2]; rat, in vivo, 13.2 mg/kg) of the same compound?
Its value is 187.5 ± 18.4.

What about the “Mass growth during the experiment” value ([2]; rat, in vivo, 13.2 mg/kg) of the same compound?
The value was 117.2 ± 7.7 g.

And the “Mass growth during the experiment % to the control” value (“Mass growth during the experiment %” below) ([2]; rat, in vivo, 13.2 mg/kg)?
Its value is 104.2%.

And the “Mass Final” value ([2]; rat, in vivo, 132 mg/kg)?
Its value is 193.0 ± 14.6.

What about the “Mass growth during the experiment” value ([2]; rat, in vivo, 132 mg/kg) of the same compound?
Its value is 118.7 ± 10.4 g.

And the “Mass growth during the experiment %” value ([2]; rat, in vivo, 132 mg/kg)?
The value was 105.3%.

What about the “Mass Final” value ([2]; rat, in vivo, 264 mg/kg) of the same compound?
The value was 186.1 ± 16.2.

What about the “Mass growth during the experiment” value ([2]; rat, in vivo, 264 mg/kg) of the same compound?
Its value is 114.9 ± 8.8 g.

What about the “Mass growth during the experiment %” value ([2]; rat, in vivo, 264 mg/kg) of the same compound?
The value was 102.2%.

What about the LD50 [3] of the same compound?
Its LD50 is 5920 mg/kg.

With “calcium ketopantothenate [Ca ketopantothenate]” as the compound, how does the “Acetylating properties of the organism” value [1] read?
Its value is 25.9.

What about the “Sulfacyl isolation M ± m In acetylated form” value ([1]; sulfacyl 20 mg/kg i.p.) of the same compound?
The value was 0.73 ± 0.05.

And the “Sulfacyl isolation M ± m In free form” value ([1]; sulfacyl 20 mg/kg i.p.)?
Its value is 2.09 ± 0.17.

What about the “Sulfacyl isolation M ± m Total” value ([1]; sulfacyl 20 mg/kg i.p.) of the same compound?
Its value is 2.82 ± 0.19.

What about the “% of excretion from the dose In acetylated form” value ([1]; rats) of the same compound?
Its value is 23.1 ± 1.8%.

And the “% of excretion from the dose In free form” value ([1]; rats)?
The value was 66.1 ± 3.2%.

What about the “Concentration in urine In acetylated form” value ([1]; rats) of the same compound?
The value was 0.221 mg/mL.

And the “Concentration in urine In free form” value ([1]; rats)?
Its value is 0.63 mg/mL.

And the “total acetylating capability of the organism of white rats (N-acetylation of aromatic amines)” value ([1]; rats)?
The value was “increased significantly”.

What about the “excretion of acetylated product in comparison with the control group” value ([1]; rats, sulfacyl 20 mg/kg i.p.) of the same compound?
Its value is “tripled”.

What about the “excretion of free product, lower than the control group” value ([1]; rats, sulfacyl 20 mg/kg i.p.) of the same compound?
Its value is 10%.

And the “Excretion % from the dose” value [1]?
The value was 89.2%.

What about the “dose from which intoxication symptoms (inertia, quickened breathing) were observed” value ([4]; mice, single internal dose, first 2 hours after administration, symptoms passed without consequences) of the same compound?
The value was at least 6000 mg/kg.

And the “dose that was not toxic” value ([4]; mouse, in vivo, po, 336 h)?
The value was 8000 mg/kg.

And the “irritation of internal organs (visual examination)” value ([2]; rat, in vivo)?
Its value is “No irritation”.

And the “Mass Final” value ([2]; rat, in vivo, 13.2 mg/kg)?
Its value is 187.6 ± 12.5.

And the “Mass growth during the experiment” value ([2]; rat, in vivo, 13.2 mg/kg)?
Its value is 116.6 ± 8.2 g.

What about the “Mass growth during the experiment %” value ([2]; rat, in vivo, 13.2 mg/kg) of the same compound?
The value was 103.7%.

What about the “Mass Final” value ([2]; rat, in vivo, 132 mg/kg) of the same compound?
Its value is 193.6 ± 17.3.

And the “Mass growth during the experiment” value ([2]; rat, in vivo, 132 mg/kg)?
Its value is 119.3 ± 10.3 g.

And the “Mass growth during the experiment %” value ([2]; rat, in vivo, 132 mg/kg)?
Its value is 106.0%.

And the “Mass Final” value ([2]; rat, in vivo, 264 mg/kg)?
The value was 190.1 ± 21.0.

And the “Mass growth during the experiment” value ([2]; rat, in vivo, 264 mg/kg)?
Its value is 117.6 ± 11.0 g.

And the “Mass growth during the experiment %” value ([2]; rat, in vivo, 264 mg/kg)?
Its value is 104.5%.

And the “toxicity when used over a prolonged period” value ([2]; rats, 13.2, 132 and 264 mg/kg internally every day, 2 months)?
The value was “not toxic”.
